According to patent US20050090659A1, “Phospholepid derivatives of nucleosides as antitumaorl medicaments” (priority 2001, published 2005):
Where two headings read alike, the source gives them in different places. Marks after values point to notes of the source that are not given here.

Legend:
[1] = system: K562 cells; experiment: Proliferation experiments with combinations, WST-1 colorimetry; format: cell-based; conditions: for reduction of the IC50 value of the combination partner in combination with substance A: substance A at a concentration just short of an antiproliferative effect
Method: The effect of the combination containing substance A and cisplatin, doxorubicin, vincristine, and camptothecin, was tested in proliferation experiments. For this purpose, substance A was dissolved in medium at a stock concentration of 1 mg/ml. The other substances were dissolved in water or DMSO (dimethylsulfoxide) at the same stock concentration of 1 mg/ml. The series' of experiments were performed in 96-well plates. […] Cells in the absence of substance and pure medium served as the controls. The in-vitro activity of the test substances was determined by colorimetry on the basis of cleavage of the tetrazolium salt, WST-1 (Roche Molecular Biochemicals, Mannheim, Del.). For this purpose, the cultures were incubated with 10 μl WST for 4 hours. Then the plates were shaken gently. The optical density was measured with an ELISA reader (Spectra MAX 340PC, Molecular Devices, Ismaning, Del.) at wavelengths from 440 to 650 nm. The IC50 value was determined for each substance. In the case of the combination, one of the substances was used at a concentration just short of showing an antiproliferative effect and the IC50 value of the combination was then determined after the addition of the second substance.

[2] = system: MethA fibrosarcoma; conditions: for percent inhibition relative to the control values of group 1, Day 21 / percent inhibition relative to the control values of group 1, Day 28: + means increase; for Effect on tumor growth (antitumoral / antiproliferative), in words: MethA fibrosarcoma model, 3-100 mg/kg once weekly i.p.; for Tumor volume Day 21 / Tumor volume Day 28: median of 10 animals, once weekly i.p.
Source text: The substances, 5-fluoro-2′-deoxyuridine-5′-phosphoric acid-(3-dodecyl-thio-2-decyloxy)propylester (substance A) and 3′-azido-3′-deoxythymidine-5′-phosphoric acid-(3-dodecylthio-2-decyloxy)propylester (substance B), have been tested in the murine MethA fibrosarcoma model, amongst other tests, under in-vivo conditions for their antitumoral or antiproliferative potency and efficacy.
MethA fibrosarcoma cells were propagated intraperitoneal (i.p.) in the form of ascites tumor in female CB6F1 mice (Charles River Laboratories, Sulzfeld, Germany). For the entire duration of the tests, the animals were kept in macrolon cages under laminar flow conditions at 23±1° C. room temperature, 55±15% relative humidity and a light-dark cycle of 12 h each. […] Prior to enrolment in the corresponding experiment, the animals were accustomed to the conditions for at least 14 days. The animals were routinely checked for infection by murine viruses.
To test the active substance, female CB6F1 mice 6-8 weeks of age were inoculated with 1×10^5 MethA fibrosarcoma cells per mouse by the subcutaneous (s.c.) route. The tumor growth in control group mice and in animals of the verum-treated groups was determined regularly in weekly intervals by measuring the two perpendicular tumor diameters as described in Hermann D. B. J., Pahlke W., Opitz H.-G. and Bicker U., Cancer Treatment Reviews, 17, 247-252, 1990. The test substances were tested in a dose-dependent fashion with once weekly i.p. administration in phosphate-buffered saline (PBS). Animals in the control group were treated with placebo (PBS).
Tumor volumes on days 21 and 28 after tumor cell inoculation are expressed as medians of 10 animals per experimental group.

[3] = for Blood levels: HB / Blood levels: HCT / Blood levels: MCH / Blood levels: MCHC / Blood levels: MCV / Blood levels: PLT / Blood levels: RBC / Blood levels: WBC / Organ weight: Brain / Organ weight: Colon / Organ weight: Heart / Organ weight: Intestines / Organ weight: Kidney / Organ weight: Liver / Organ weight: Lungs / Organ weight: Ovaries / Organ weight: Spleen / Organ weight: Stomach / Bone marrow cell count: mean ± SEM; for Bone marrow cell count: 10 animals; for Body weight: median
Method: Substance A was tested in female NMRI mice for its tolerability. The animals were kept under the same conditions as described in Example 1.
Female NMRI mice, 6-8 weeks of age (Charles River Laboratories, Sulzfeld, Germany), were treated with 1 or 1.5 g/kg of substance A administered by an esophageal probe. Subsequently, the following toxicity parameters were determined: • Blood counts, including white blood cell concentration (WBC), red blood cells concentration (RBC), hemoglobin (HB), hematocrit (HCT), platelet concentration (PLT), mean corpuscular volume (MCV), mean corpuscular hemoglobin (MCH) and mean corpuscular hemoglobin concentration (MCHC), • Bone marrow cell count, i.e. number of bone marrow cells per femur (M/femur), • Body weight • Organ weights, including weight of colon, heart, brain, intestines, lungs, liver, stomach, spleen, kidneys, ovaries.

[4] = 3 mg/kg/application, day 21 after tumor cell inoculation
[5] = very high dosage (1 or 1.5 g/kg)
[6] = partner at a concentration just short of an antiproliferative effect

COc1cccc2c1C(=O)c1c(O)c3c(c(O)c1C2=O)C[C@@](O)(C(=O)CO)C[C@@H]3O[C@H]1C[C@H](N)[C@H](O)[C@H](C)O1 [doxorubicin, reference compound]
reduction of the IC50 value of the combination partner in combination with substance A [1]: approx. 50%

CCCCCCCCCCCCSCC(COP(=O)(O)OC[C@H]1O[C@@H](n2cc(C)c(=O)[nH]c2=O)C[C@@H]1N=[N+]=[N-])OCCCCCCCCCC (some centres unmarked) [Substance B, 3′-azido-3′-deoxythymidine-5′-phosphoric acid-(3-dodecylthio-2-decyloxy)propylester, reference compound]
percent inhibition relative to the control values of group 1, Day 21 ([2]; 3 mg/kg/application, day 21): 0.8%
percent inhibition relative to the control values of group 1, Day 28 ([2]; 3 mg/kg/application): +4.1%
percent inhibition relative to the control values of group 1, Day 21 ([2]; 30 mg/kg/application, day 21): +1.7%
percent inhibition relative to the control values of group 1, Day 28 ([2]; 30 mg/kg/application): +1.4%
percent inhibition relative to the control values of group 1, Day 21 ([2]; 100 mg/kg/application, day 21): 0.3%
percent inhibition relative to the control values of group 1, Day 28 ([2]; 100 mg/kg/application): +2.8%
Effect on tumor growth (antitumoral / antiproliferative), in words [2]: no antitumoral or antiproliferative properties
Tumor volume Day 21 [2, 4]: 3.998 mm^3
Tumor volume Day 28 ([2]; 3 mg/kg/application): 10.228 mm^3
Tumor volume Day 21 ([2]; 30 mg/kg/application, day 21): 4.102 mm^3
Tumor volume Day 28 ([2]; 30 mg/kg/application): 9.963 mm^3
Tumor volume Day 21 ([2]; 100 mg/kg/application, day 21): 4.021 mm^3
Tumor volume Day 28 ([2]; 100 mg/kg/application): 10.098 mm^3

N.N.[Cl][Pt][Cl] [cisplatin, reference compound]
reduction of the IC50 value of the combination partner in combination with substance A [1]: 50%

CC[C@@]1(O)C(=O)OCc2c1cc1n(c2=O)Cc2cc3ccccc3nc2-1 [camptothecin, reference compound]
reduction of the IC50 value of the combination partner in combination with substance A [1]: approx. 90%

CC[C@]1(O)C[C@H]2CN(CCc3c([nH]c4ccccc34)[C@@](C(=O)OC)(c3cc4c(cc3OC)N(C=O)[C@H]3[C@@](O)(C(=O)OC)[C@H](OC(C)=O)[C@]5(CC)C=CCN6CC[C@]43[C@@H]65)C2)C1 [vincristine, reference compound]
reduction of the IC50 value of the combination partner in combination with substance A [1]: approx. 65%

CCCCCCCCCCCCSCC(COP(=O)(O)OC[C@H]1O[C@@H](n2cc(F)c(=O)[nH]c2=O)C[C@@H]1O)OCCCCCCCCCC (some centres unmarked) [Substance A, 5-fluoro-2′-deoxyuridine-5′-phosphoric acid-(3-dodecyl-thio-2-decyloxy)propylester]
Blood levels: HB ([3]; 1 g/kg): 17850 ± 390 µg/mL
Blood levels: HCT ([3]; 1 g/kg): 47.93 ± 1.16%
Blood levels: MCH ([3]; 1 g/kg): 19.28 ± 0.22 pg
Blood levels: MCHC ([3]; 1 g/kg): 37.29 ± 0.44 g/dL
Blood levels: MCV ([3]; 1 g/kg): 51.50 ± 0.58 fL
Blood levels: PLT ([3]; 1 g/kg): 1153 ± 41 k/μl
Blood levels: RBC ([3]; 1 g/kg): 9.31 ± 0.23 M/μl
Blood levels: WBC ([3]; 1 g/kg): 14.34 ± 2.18 k/μl
Organ weight: Brain ([3]; 1 g/kg): 399 ± 8 g
Organ weight: Colon ([3]; 1 g/kg): 373 ± 15 g
Organ weight: Heart ([3]; 1 g/kg): 133 ± 4 g
Organ weight: Intestines ([3]; 1 g/kg): 1.622 ± 61 g
Organ weight: Kidney ([3]; 1 g/kg): 361 ± 17 g
Organ weight: Liver ([3]; 1 g/kg): 1.602 ± 42 g
Organ weight: Lungs ([3]; 1 g/kg): 226 ± 9 g
Organ weight: Ovaries ([3]; 1 g/kg): 183 ± 17 g
Organ weight: Spleen ([3]; 1 g/kg): 125 ± 9 g
Organ weight: Stomach ([3]; 1 g/kg): 232 ± 7 g
Bone marrow cell count ([3]; 1 g/kg): 28.48 ± 0.86 M/Femur
Body weight ([3]; 1 g/kg): 28.7^c g
Tolerability parameters compared to the placebo-treated control group, in words ([3]; 1 or 1.5 g/kg of body weight): no significant reduction in the tolerability parameters
Blood levels: HB ([3]; 1.5 g/kg): 15790 ± 920 µg/mL
Blood levels: HCT ([3]; 1.5 g/kg): 43.42 ± 2.77%
Blood levels: MCH ([3]; 1.5 g/kg): 19.09 ± 0.37 pg
Blood levels: MCHC ([3]; 1.5 g/kg): 36.53 ± 0.38 g/dL
Blood levels: MCV ([3]; 1.5 g/kg): 52.09 ± 0.81 fL
Blood levels: PLT ([3]; 1.5 g/kg): 1431 ± 172 k/μl
Blood levels: RBC ([3]; 1.5 g/kg): 8.34 ± 0.56 M/μl
Blood levels: WBC ([3]; 1.5 g/kg): 16.97 ± 6.05 k/μl
Organ weight: Brain ([3]; 1.5 g/kg): 387 ± 18 g
Organ weight: Colon ([3]; 1.5 g/kg): 392 ± 29 g
Organ weight: Heart ([3]; 1.5 g/kg): 126 ± 9 g
Organ weight: Intestines ([3]; 1.5 g/kg): 1.807 ± 112 g
Organ weight: Kidney ([3]; 1.5 g/kg): 351 ± 26 g
Organ weight: Liver ([3]; 1.5 g/kg): 1.739 ± 81 g
Organ weight: Lungs ([3]; 1.5 g/kg): 206 ± 9 g
Organ weight: Ovaries ([3]; 1.5 g/kg): 203 ± 33 g
Organ weight: Spleen ([3]; 1.5 g/kg): 204 ± 26 g
Organ weight: Stomach ([3]; 1.5 g/kg): 232 ± 16 g
Bone marrow cell count ([3]; 1.5 g/kg): 31.44 ± 1.51 M/Femur
Body weight ([3]; 1.5 g/kg): 27.9^c g
Bone marrow suppression, hematotoxicity or unspecific-toxic organ intolerance, in words [3, 5]: no evidence of bone marrow suppression, hematotoxicity or unspecific-toxic organ intolerance
Unspecific-toxic properties under in-vivo conditions, in words [3, 5]: no unspecific-toxic properties
percent inhibition relative to the control values of group 1, Day 21 ([2]; 3 mg/kg/application, day 21): 59.1%
percent inhibition relative to the control values of group 1, Day 28 ([2]; 3 mg/kg/application): 57.6%
percent inhibition relative to the control values of group 1, Day 21 ([2]; 30 mg/kg/application, day 21): 89.7%
percent inhibition relative to the control values of group 1, Day 28 ([2]; 30 mg/kg/application): 87.2%
percent inhibition relative to the control values of group 1, Day 21 ([2]; 100 mg/kg/application, day 21): 91.1%
percent inhibition relative to the control values of group 1, Day 28 ([2]; 100 mg/kg/application): 92.2%
Effect on tumor growth (antitumoral / antiproliferative), in words [2]: inhibits tumor growth highly significantly and in a dose- and time-dependent fashion
Tumor volume Day 21 [2, 4]: 1.649 mm^3
Tumor volume Day 28 ([2]; 3 mg/kg/application): 4.163 mm^3
Tumor volume Day 21 ([2]; 30 mg/kg/application, day 21): 416 mm^3
Tumor volume Day 28 ([2]; 30 mg/kg/application): 1.254 mm^3
Tumor volume Day 21 ([2]; 100 mg/kg/application, day 21): 357 mm^3
Tumor volume Day 28 ([2]; 100 mg/kg/application): 762 mm^3
reduction of the IC50 value of substance A in combination with camptothecin [1, 6]: approx. 40%
reduction of the IC50 value of substance A in combination with cisplatin [1, 6]: 25%
reduction of the IC50 value of substance A in combination with doxorubicin [1, 6]: approx. 30%
reduction of the IC50 value of substance A in combination with vincristine [1, 6]: approx. 60%
